From patent US20230382949A1 (HEPTARES THERAPEUTICS LIMITED, priority 2020, published 2023)
Where two headings read alike, the source gives them in different places. Starred links: 1 amine or outer side, 2 acyl side, 3 side chain; linkers in the order of their positions; H or OH if unused. Non-standard residues stand in square brackets, D forms with d. Residues, ends and D or L forms follow the SMILES beside them. *: point of attachment. Ala(piperidin-4-yl) = O=C([C@H](CC1CCN([*:3])CC1)N[*:1])[*:2]; Malonyl(2,2-Me2,histaminyl) = CC(C)(C(=O)NCCc1cnc[nH]1)C(=O)*; dNMeBip = CN[C@H](Cc1ccc(-c2ccccc2)cc1)C(=O)O; dBip = N[C@H](Cc1ccc(-c2ccccc2)cc1)C(=O)O; Oic = O=C(O)[C@@H]1C[C@@H]2CCCC[C@@H]2N1; Phe(3-Cl) = N[C@@H](Cc1cccc(Cl)c1)C(=O)O; Phe(4-Br) = N[C@@H](Cc1ccc(Br)cc1)C(=O)O; dPhe(4-Br) = N[C@H](Cc1ccc(Br)cc1)C(=O)O; d2Nal = N[C@H](Cc1ccc2ccccc2c1)C(=O)O; hArg = N=C(N)NCCCC[C@H](N)C(=O)O; NMeQ = CN[C@@H](CCC(N)=O)C(=O)O; dCha = N[C@H](CC1CCCCC1)C(=O)O; Pip = O=C(O)[C@@H]1CCCCN1; Nle = CCCC[C@H](N)C(=O)O; Aib = CC(C)(N)C(=O)O; Bn = c1ccc(C*)cc1; Sar = CNCC(=O)O

Legend:
human Apelin receptor [1] = molecular target: T1, human Apelin receptor (Homo sapiens, UniProt P35414); assay: cAMP accumulation assay (HTRF), functional agonism of human Apelin receptors; assay type: cell-based; conditions: for Emax: CHO
T1 sequence (P35414 1-380): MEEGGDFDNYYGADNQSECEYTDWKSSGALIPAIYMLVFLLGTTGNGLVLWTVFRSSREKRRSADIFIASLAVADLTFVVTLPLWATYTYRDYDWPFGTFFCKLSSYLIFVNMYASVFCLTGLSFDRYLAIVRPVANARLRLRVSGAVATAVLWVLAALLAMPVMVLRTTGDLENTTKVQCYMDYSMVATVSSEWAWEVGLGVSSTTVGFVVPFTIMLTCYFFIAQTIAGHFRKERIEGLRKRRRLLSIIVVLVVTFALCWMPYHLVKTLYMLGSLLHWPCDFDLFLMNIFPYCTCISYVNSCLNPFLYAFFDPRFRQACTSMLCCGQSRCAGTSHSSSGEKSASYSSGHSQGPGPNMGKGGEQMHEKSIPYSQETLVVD
Excerpt: cAMP functional assay. cAMP production was quantified using the Homogeneous Time-Resolved Fluorescence (HTRF) cAMP dynamic-2 assay (Cisbio, France).

human Apelin receptor [2] = molecular target: T2, human Apelin receptor (Homo sapiens, UniProt P35414); assay: β-arrestin accumulation assay, functional agonism of human Apelin receptors; assay type: cell-based
T2 construct: host or cells: CHO-K1 cells
Method: β-arrestin assay. […] After 16 h incubation at 37° C. media was removed and cells were incubated at 37° C. for 90 min in serum free media containing increasing concentrations of test agonist. The assay reaction was stopped by adding detection reagent (DiscoveRx) and incubation for 60 min in the dark. Levels of receptor activation were then measured on a PheraStar fluorescence plate reader (BMG LabTech) and EC50 values were determined using Graphpad Prism.
T2 sequence (P32121 whole entry partner, one chain of several): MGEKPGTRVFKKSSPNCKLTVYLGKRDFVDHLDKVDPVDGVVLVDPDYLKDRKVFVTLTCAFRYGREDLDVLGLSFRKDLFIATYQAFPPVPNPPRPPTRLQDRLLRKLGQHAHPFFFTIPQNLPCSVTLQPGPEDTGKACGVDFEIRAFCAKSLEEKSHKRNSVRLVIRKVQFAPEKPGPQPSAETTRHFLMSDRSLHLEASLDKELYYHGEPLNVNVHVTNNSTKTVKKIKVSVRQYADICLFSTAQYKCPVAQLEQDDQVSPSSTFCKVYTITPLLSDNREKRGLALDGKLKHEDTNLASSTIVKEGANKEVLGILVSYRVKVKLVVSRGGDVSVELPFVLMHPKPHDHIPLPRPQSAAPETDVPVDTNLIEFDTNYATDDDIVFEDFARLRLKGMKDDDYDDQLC

[3] = Human Apelin agonist cAMP assay, CHO cells stably expressing the human Apelin receptor, 3 uM forskolin
[4] = pEC50, Human Apelin agonist cAMP assay, CHO cells stably expressing the human Apelin receptor, 3 uM forskolin

Row | Emax (human Apelin receptor [1]; read-out: Emax) [%] | EC50 (human Apelin receptor [1]; read-out: pEC50 (converted)) [nM] | Compound | Emax (human Apelin receptor [1]; [3]) [%] | EC50 (human Apelin receptor [1]; [4]) [nM] | EC50 (human Apelin receptor [2]) [nM] | Human Apelin agonist β-arrestin assay Emax (human Apelin receptor [2]; CHO-K1 cells overexpressing human Apelin receptor and β-arrestin, Emax only reported for active compounds)
1 | – | – | CC(C)C[C@H](NC(=O)[C@@H](CCCNC(=N)N)NC(=O)[C@@H]1CCCN1C(=O)[C@H](CCCCNC(=N)N)NC(=O)[C@H](CCC(N)=O)NC(=O)C(C)(C)C(=O)NCCc1cnc[nH]1)C(=O)NC(C)(C)C(=O)N[C@@H](Cc1cnc[nH]1)C(=O)N[C@@H](CC1CCNCC1)C(=O)NCC(=O)N1[C@H](C(=O)N[C@@H](Cc2ccc(Br)cc2)C(=O)N2CCC[C@H]2C(=O)N(C)[C@H](Cc2ccc(-c3ccccc3)cc2)C(=O)O)C[C@@H]2CCCC[C@@H]21 [Example 57] ({Malonyl(2,2-Me2,histaminyl)}-Q[hArg]P[dR]L[Aib]H[Ala(piperidin-4-yl)]G[Oic][Phe(4-Br)]P[dNMeBip]-OH) | 45.9 | 63.1 | > 10000 | –
2 | 95.7 | 100 | CC(C)C[C@H](NC(=O)[C@H](CCCNC(=N)N)NC(=O)[C@@H]1CCCN1C(=O)[C@@H](CCCNC(=N)N)NC(=O)[C@H](CCC(N)=O)NC(=O)C(C)(C)C(=O)NCCc1cnc[nH]1)C(=O)NC(C)(C)C(=O)N[C@@H](Cc1c[nH]cn1)C(=O)N[C@@H](CC1CCNCC1)C(=O)NCC(=O)N1[C@H](C(=O)N[C@@H](Cc2ccc(Br)cc2)C(=O)N2CCC[C@H]2C(=O)N[C@H](CC2CCCCC2)C(=O)O)C[C@@H]2CCCC[C@@H]21 [Example 43] ({Malonyl(2,2-Me2,histaminyl)}-Q[dR]PRL[Aib]H[Ala(piperidin-4-yl)]G[Oic][Phe(4-Br)]P[dCha]-OH) | – | – | > 10000 | –
3 | – | – | CC(C)C[C@H](NC(=O)[C@@H](CCCNC(=N)N)NC(=O)[C@@H]1CCCN1C(=O)[C@H](CCCCNC(=N)N)NC(=O)[C@H](CCC(N)=O)NC(=O)[C@@H](CCCNC(=N)N)NC(=O)C(C)(C)C(=O)NCCc1c[nH]cn1)C(=O)NC(C)(C)C(=O)N[C@@H](Cc1c[nH]cn1)C(=O)N[C@@H](CC1CCNCC1)C(=O)NCC(=O)N1[C@H](C(=O)N[C@@H](Cc2cccc(Cl)c2)C(=O)N2CCC[C@H]2C(=O)N[C@H](Cc2ccc(-c3ccccc3)cc2)C(=O)O)C[C@@H]2CCCC[C@@H]21 [Example 18] ({Malonyl(2,2-Me2,histaminyl)}-[dR]Q[hArg]P[dR]L[Aib]H[Ala(piperidin-4-yl)]G[Oic][Phe(3-Cl)]P[dBip]-OH) | 47.5 | 79.4 | > 10000 | –
4 | – | – | CC(C)C[C@H](NC(=O)[C@@H](CCCNC(=N)N)NC(=O)[C@@H]1CCCCN1C(=O)[C@H](CCCCNC(=N)N)NC(=O)[C@H](CCC(N)=O)NC(=O)[C@@H](CCCNC(=N)N)NC(=O)C(C)(C)C(=O)NCCc1cnc[nH]1)C(=O)NC(C)(C)C(=O)N[C@@H](Cc1c[nH]cn1)C(=O)N[C@@H](CC1CCNCC1)C(=O)N[C@@H](C)C(=O)N1[C@H](C(=O)N[C@@H](Cc2ccc(Br)cc2)C(=O)N2CCC[C@H]2C(=O)N[C@H](Cc2ccc(-c3ccccc3)cc2)C(=O)O)C[C@@H]2CCCC[C@@H]21 [Example 29] ({Malonyl(2,2-Me2,histaminyl)}-[dR]Q[hArg][Pip][dR]L[Aib]H[Ala(piperidin-4-yl)]A[Oic][Phe(4-Br)]P[dBip]-OH) | 69.7 | 2.51 | > 10000 | –
5 | – | – | CC(C)C[C@H](NC(=O)[C@@H](CCCNC(=N)N)NC(=O)[C@@H]1CCCN1C(=O)[C@H](CCCCNC(=N)N)NC(=O)[C@H](CCC(N)=O)N(C)C(=O)C(C)(C)C(=O)NCCc1cnc[nH]1)C(=O)NC(C)(C)C(=O)N[C@@H](Cc1c[nH]cn1)C(=O)N[C@@H](CC1CCNCC1)C(=O)NCC(=O)N1[C@H](C(=O)N[C@@H](Cc2ccc(Br)cc2)C(=O)N2CCC[C@H]2C(=O)N[C@H](Cc2ccc(-c3ccccc3)cc2)C(=O)O)C[C@@H]2CCCC[C@@H]21 [Example 58] ({Malonyl(2,2-Me2,histaminyl)}-[NMeQ][hArg]P[dR]L[Aib]H[Ala(piperidin-4-yl)]G[Oic][Phe(4-Br)]P[dBip]-OH) | 33 | 794 | > 100000 | –
6 | 43.4 | 25.1 | CC(C)C[C@H](NC(=O)[C@@H](CCCNC(=N)N)NC(=O)[C@@H]1CCCN1C(=O)[C@H](CCCCNC(=N)N)NC(=O)[C@H](CCC(N)=O)NC(=O)[C@@H](CCCNC(=N)N)NC(=O)C(C)(C)C(=O)NCCc1c[nH]cn1)C(=O)NC(C)(C)C(=O)N[C@@H](Cc1c[nH]cn1)C(=O)N[C@@H](CC1CCNCC1)C(=O)NCC(=O)N1[C@H](C(=O)N[C@@H](Cc2ccc(Br)cc2)C(=O)N2CCC[C@H]2C(=O)N[C@H](Cc2ccc3ccccc3c2)C(=O)O)C[C@@H]2CCCC[C@@H]21 [Example 23] ({Malonyl(2,2-Me2,histaminyl)}-[dR]Q[hArg]P[dR]L[Aib]H[Ala(piperidin-4-yl)]G[Oic][Phe(4-Br)]P[d2Nal]-OH) | – | – | > 10000 | –
7 | – | – | CC(C)C[C@H](NC(=O)[C@H](CCCNC(=N)N)NC(=O)[C@@H]1CCCN1C(=O)[C@@H](CCCNC(=N)N)NC(=O)[C@H](CCC(N)=O)NC(=O)C(C)(C)C(=O)NCCc1cnc[nH]1)C(=O)NC(C)(C)C(=O)N[C@@H](Cc1c[nH]cn1)C(=O)N[C@@H](CC1CCNCC1)C(=O)NCC(=O)N1[C@H](C(=O)N[C@@H](Cc2ccc(Br)cc2)C(=O)N2CCC[C@H]2C(=O)N[C@H](Cc2ccc(OCc3ccccc3)cc2)C(=O)O)C[C@@H]2CCCC[C@@H]21 [Example 42] ({Malonyl(2,2-Me2,histaminyl)}-Q[dR]PRL[Aib]H[Ala(piperidin-4-yl)]G[Oic][Phe(4-Br)]P[dY](Bn)-OH) | 107 | 7.94 | 79.4 | –
8 | 46.1 | 50.1 | CC(C)C[C@H](NC(=O)[C@H](CCCNC(=N)N)NC(=O)[C@@H]1CCCN1C(=O)[C@@H](CCCNC(=N)N)NC(=O)[C@H](CCC(N)=O)NC(=O)C(C)(C)C(=O)NCCc1cnc[nH]1)C(=O)NC(C)(C)C(=O)N[C@@H](Cc1c[nH]cn1)C(=O)N[C@@H](CC1CCNCC1)C(=O)NCC(=O)N1[C@H](C(=O)N[C@@H](Cc2ccc(Br)cc2)C(=O)N2CCC[C@H]2C(=O)N[C@H](Cc2ccc(Br)cc2)C(=O)O)C[C@@H]2CCCC[C@@H]21 [Example 41] ({Malonyl(2,2-Me2,histaminyl)}-Q[dR]PRL[Aib]H[Ala(piperidin-4-yl)]G[Oic][Phe(4-Br)]P[dPhe(4-Br)]-OH) | – | – | > 10000 | –
9 | 85.9 | 12.6 | CC(C)C[C@H](NC(=O)[C@@H](CCCNC(=N)N)NC(=O)[C@@H]1CCCCN1C(=O)[C@H](CCCNC(=N)N)NC(=O)[C@H](CCC(N)=O)NC(=O)C(C)(C)C(=O)NCCc1cnc[nH]1)C(=O)NC(C)(C)C(=O)N[C@@H](Cc1c[nH]cn1)C(=O)N[C@@H](CC1CCNCC1)C(=O)NCC(=O)N1[C@H](C(=O)N[C@@H](Cc2ccc(Br)cc2)C(=O)N2CCC[C@H]2C(=O)N[C@H](Cc2ccc(-c3ccccc3)cc2)C(=O)O)C[C@@H]2CCCC[C@@H]21 [Example 55] ({Malonyl(2,2-Me2,histaminyl)}-QR[Pip][dR]L[Aib]H[Ala(piperidin-4-yl)]G[Oic][Phe(4-Br)]P[dBip]-OH) | – | – | > 10000 | –
10 | – | – | CCCC[C@H](NC(=O)[C@@H]1C[C@@H]2CCCC[C@@H]2N1C(=O)CNC(=O)[C@H](CC1CCNCC1)NC(=O)[C@H](Cc1ccc(Br)cc1)NC(=O)C(C)(C)NC(=O)[C@H](CC(C)C)NC(=O)[C@H](CCCNC(=N)N)NC(=O)[C@@H]1CCCN1C(=O)[C@@H](CCCNC(=N)N)NC(=O)[C@H](CCC(N)=O)NC(=O)[C@@H](CCCNC(=N)N)NC(=O)C(C)(C)C(=O)NCCc1cnc[nH]1)C(=O)N1CCC[C@H]1C(=O)N[C@H](Cc1ccc(-c2ccccc2)cc1)C(=O)O [Example 34] ({Malonyl(2,2-Me2,histaminyl)}-[dR]Q[dR]PRL[Aib][Phe(4-Br)][Ala(piperidin-4-yl)]G[Oic][Nle]P[dBip]-OH) | 60.6 | 25.1 | > 10000 | –
11 | – | – | CC(C)C[C@H](NC(=O)[C@@H](CCCNC(=N)N)NC(=O)[C@@H]1CCCN1C(=O)[C@H](CCCCNC(=N)N)NC(=O)[C@H](CCC(N)=O)NC(=O)C(C)(C)C(=O)NCCc1cnc[nH]1)C(=O)NC(C)(C)C(=O)N[C@@H](Cc1c[nH]cn1)C(=O)N[C@@H](CC1CCNCC1)C(=O)N(C)CC(=O)N1[C@H](C(=O)N[C@@H](Cc2ccc(Br)cc2)C(=O)N2CCC[C@H]2C(=O)N[C@H](Cc2ccc(-c3ccccc3)cc2)C(=O)O)C[C@@H]2CCCC[C@@H]21 [Example 52] ({Malonyl(2,2-Me2,histaminyl)}-Q[hArg]P[dR]L[Aib]H[Ala(piperidin-4-yl)][Sar][Oic][Phe(4-Br)]P[dBip]-OH) | 20.4 | 63.1 | > 10000 | –
12 | 87.9 | 31.6 | CC(C)C[C@H](NC(=O)[C@@H](CCCNC(=N)N)NC(=O)[C@@H]1CCCN1C(=O)[C@H](CCCCNC(=N)N)NC(=O)[C@H](CCC(N)=O)NC(=O)[C@@H](CCCNC(=N)N)NC(=O)C(C)(C)C(=O)NCCc1c[nH]cn1)C(=O)NC(C)(C)C(=O)N[C@@H](Cc1c[nH]cn1)C(=O)N[C@@H](CC1CCNCC1)C(=O)NCC(=O)N1[C@H](C(=O)N[C@@H](Cc2ccc(Br)cc2)C(=O)N2CCC[C@H]2C(=O)N[C@H](CC2CCCCC2)C(=O)O)C[C@@H]2CCCC[C@@H]21 [Example 24] ({Malonyl(2,2-Me2,histaminyl)}-[dR]Q[hArg]P[dR]L[Aib]H[Ala(piperidin-4-yl)]G[Oic][Phe(4-Br)]P[dCha]-OH) | – | – | > 10000 | –
13 | – | – | Apelin [reference compound] | – | – | – | 165.8
